Legend:
[1] = Safety and tolerability in the phase II trial of CCI-779 250 mg IV weekly; format: in vivo, human
Description: (§1) Patients were treated with a flat dose of 250 mg of CCI-779 diluted in 250 mL of normal saline and delivered IV over 30 minutes. Patients were pretreated with diphenhydramine 25-50 mg IV. Treatment was weekly and a cycle was considered 4 weeks. A complete blood count was performed each week and a full dose delivered if the platelet count was ≧50,000 and the ANC≧1000 and there was no grade 3 non-hematologic toxicity (using the NCI Common Toxicity Criteria version 2). […] Patients were not to receive prophylactic white blood cell growth factors to maintain dosing but could receive them at time of neutropenia at physician discretion. Erythropoietin could be used.
All 35 patients were included in the analysis of safety and tolerability. During the 30 minute infusion, CCI-779 was well-tolerated and there were no significant toxicities that occurred. Thrombocytopenia was the cause of most dose reductions and was rapidly reversible with drug delays of typically only one week. Only three patients required platelet transfusions, and four patients required red blood cell transfusions. Thirteen patients experienced grade 3 infections without concomitant neutropenia; two patients had febrile neutropenia and three had infection (grade 3) with neutropenia. […] The conclusion was that this was idiopathic Bell's palsy and indeed it eventually resolved. A possible relationship to CCI-779 could not be established nor eliminated. The patient who experienced blurred vision was diagnosed with retinitis due to reactivation of cytomegalovirus (CMV) infection.

mantle cell lymphoma [2] = assay: Phase II study of low dose single-agent CCI-779, 25 mg/week, in relapsed mantle cell lymphoma; format: in vivo, human
Description: Eleven patients (4 refractory, […], ranging from 55 to 85 years old) with MCL were enrolled in a Phase II study of CCI-779 and were treated as described in Example 1 above, with the exception that they received a 10-fold lower dose than in Example 1, i.e., 25 mg/week. Eight patients (73%) were in stage 4, two (18%) in stage 3, and 4 (36%) had ≧2 extranodal sites. Patients had received a median of 3 prior therapies (range, 1-7) and 3 were refractory to their last treatment.

[3] = Stability of CCI-779 in parenteral cosolvent formulation with antioxidant/chelating agent; format: physicochemical; settings: citric acid at a concentration of less than 0.01% w/v
Text: In this embodiment, the stability of a CCI-779 in parenterally acceptable alcoholic cosolvents is enhanced by addition of an antioxidant to the formulation. Acceptable antioxidants include, but are not limited to, citric acid, d,l-α-tocopherol, BHA, BHT, monothioglycerol, ascorbic acid, propyl gallate, and mixtures thereof. Generally, the parenteral formulations useful in this embodiment of the invention will contain an antioxidant component(s) in a concentration ranging from 0.001% to 1% w/v, or 0.01% to 0.5% w/v, of the cosolvent concentrate, although lower or higher concentrations may be desired. Of the antioxidants, d,l-α-tocopherol is particularly desirable and is used at a concentration of 0.01 to 0.1% w/v with a preferred concentration of 0.075% w/v of the cosolvent concentrate.
Examples of such chelating agents include, e.g., citric acid, acetic acid, and ascorbic acid (which may function as both a classic antioxidant and a chelating agent in the present formulations). Other chelating agents include such materials as are capable of binding metal ions in solution, such as ethylene diamine tetra acetic acid (EDTA), its salts, or amino acids such as glycine are capable of enhancing the stability of a CCI-779. […] Optimal concentrations for the selected antioxidant(s) can be readily determined by one of skill in the art, based upon the information provided herein.

mantle cell lymphoma [4] = assay: Phase II trial of single-agent CCI-779, 250 mg IV weekly, in relapsed mantle cell lymphoma (NCCTG); format: in vivo, human
Description: The ability of a CCI-779 to treat or inhibit mantle cell lymphoma was evaluated in a clinical trial. Briefly, 18 patients (mean age 72 years, range 38-89 years) were treated with an intravenous dose of 250 mg CCI-779 on days 1, 8, 15, and 22 of a 4 week treatment cycle, for up to a maximum of 12 cycles. Of these patients, 15 were stage IV, 2 were stage III, and 1 was stage II. […] Only 3 patients progressed before the end of the cycle. Based on the results obtained in this clinical trial, CCI-779 is useful in the treatment or inhibition of mantle cell lymphoma.
This study was conducted through the North Central Cancer Treatment Group (NCCTG) cooperative group. Patients were eligible for this trial if they had previously received therapy and had relapsed. There was no limit on the number of prior therapies. All histologies were confirmed to be mantle cell lymphoma by central pathology review. Cyclin-D1 positivity was required by immunohistochemistry or t(11;14) detected by FISH. Patients were required to have measurable disease with a lymph node or tumor mass≧2 cm or malignant lymphocytosis with an ALC≧5,000; a life expectancy of ≧3 months, ECOG performance status of 0, 1, or 2; absolute neutrophil count (ANC)≧1,000; platelets≧75,000; hemoglobin≧8 g/dL; serum creatinine≦2× the upper limit of normal (UNL); serum bilirubin≦1.5 UNL; serum cholesterol≦350 mg/dL; and triglycerides≦400 mg/dL. Patients could not have known central nervous system involvement or HIV infection.
as §1
Patients were restaged after 1, 3, and 6 cycles and the response assessed as per the international workshop criteria. [B. D. Cheson, et al., “Report of an International Workshop to Standardize Response Criteria for Non-Hodgkin's Lymphomas”, Journal of Clinical Oncology, Vol 17, Issue 4 (April), 1999: 1244]. Patients who progressed anytime or those patients with stable disease after 6 cycles went off study.
A single stage phase II study with an interim analysis was conducted to assess the proportion of previously treated mantle cell lymphoma patients who achieved a PR or better after treatment with CCI-779. This trial was designed to test the null hypothesis that the true response rate was at most 0.05. The smallest response rate that would indicate that this regimen was worth further study in this patient population was 0.20. The design was generated based on the parameters and assumptions of a two-stage Simon MinMax™ design, but where accrual was not suspended for the interim analysis. This study design required a maximum of 32 evaluable patients, where the interim analysis was performed after 18 patients had been accrued and followed for at least 24 weeks. An additional 3 patients were accrued to this cohort (for a maximum of 35 patients overall) to account for the possibilities of ineligibility, withdrawal from study prior to drug administration, or major violations. However, only the first 32 evaluable patients were used to evaluate the decision criteria for this design. At least one response in the first 18 evaluable patients needed to be observed in the interim analysis to continue accrual. At the time of the final analyses, a total of four or more responses were required to indicate that this regimen warrants further evaluation in this patient population. […]

[5] = overall, median follow-up 11 months

CO[C@H]1C[C@@H]2CC[C@@H](C)[C@@](O)(O2)C(=O)C(=O)N2CCCC[C@H]2C(=O)O[C@H]([C@H](C)C[C@@H]2CC[C@@H](OC(=O)C(C)(CO)CO)[C@H](OC)C2)CC(=O)[C@H](C)/C=C(\C)[C@@H](O)[C@@H](OC)C(=O)[C@H](C)C[C@H](C)/C=C/C=C/C=C/1C [CCI-779, rapamycin 42-ester with 3-hydroxy-2-(hydroxymethyl)-2-methylpropionic acid]
adverse event, all grades: AST elevations ([1]; 35 patients): 43% | adverse event, all grades: abnormal taste ([1]; 35 patients): 43% | adverse event, all grades: anemia ([1]; 35 patients): 66% | adverse event, all grades: fatigue ([1]; 35 patients): 66% | adverse event, all grades: hypercholesterolemia ([1]; 35 patients): 40% | adverse event, all grades: hyperglycemia ([1]; 35 patients): 91% | adverse event, all grades: increased triglycerides ([1]; 35 patients): 77% | adverse event, all grades: infection without concomitant neutropenia ([1]; 35 patients): 63% | adverse event, all grades: loss of appetite ([1]; 35 patients): 40% | adverse event, all grades: mucositis ([1]; 35 patients): 71% | adverse event, all grades: nausea ([1]; 35 patients): 49% | adverse event, all grades: neutropenia ([1]; 35 patients): 77% | adverse event, all grades: rash ([1]; 35 patients): 51% | adverse event, all grades: sensory neurophathy ([1]; 35 patients): 37% | adverse event, all grades: thrombocytopenia ([1]; 35 patients): 100% | adverse event, all grades: weight loss ([1]; 35 patients): 46% | grade 5 events (deaths on treatment) ([1]; 35 patients): No grade 5 events | patients requiring platelet transfusions ([1]; 35 patients): three | patients requiring red blood cell transfusions ([1]; 35 patients): four | patients with febrile neutropenia ([1]; 35 patients): two | patients with grade 3 infections without concomitant neutropenia ([1]; 35 patients): Thirteen | patients with infection (grade 3) with neutropenia ([1]; 35 patients): three | tolerability during the 30 minute infusion ([1]; 35 patients): well-tolerated | median time to discontinuation of treatment ([1]; 95% CI 3-6.2 months): 3.7 months | patients who went off treatment due to adverse reactions ([1]; of 28 patients who discontinued treatment): 7 | dose reductions necessary ([1]; starting dose 250 mg weekly): all but 4 patients | overall response rate (mantle cell lymphoma [2]; 7/11 patients): 64% | number of PRs (mantle cell lymphoma [2]; 11 patients): 7 | effect of citric acid on stability of CCI-779 [3]: enhanced the stability | overall response rate (ORR) (mantle cell lymphoma [4]; 13/34 patients, 250 mg IV weekly, 90% CI 24%-54%): 38% | median duration of response (mantle cell lymphoma [4]; 13 responders, 95% CI 4-13.2 months): 5.7 months | overall response rate (mantle cell lymphoma [4]; 18 patients, 250 mg IV days 1, 8, 15, 22 of 4 week cycle, 95% CI 24%-68%): 44.4% | patients progressed before the end of the cycle (mantle cell lymphoma [4]; 18 patients, 250 mg IV weekly): 3 patients | patients with complete response (CR) (mantle cell lymphoma [4]; 18 patients, 250 mg IV weekly): One | patients with partial response (PR) (mantle cell lymphoma [4]; 18 patients, 250 mg IV weekly): 7 patients | number of CR (mantle cell lymphoma [4]; 34 patients, 250 mg IV weekly): 1 | number of PRs (mantle cell lymphoma [4]; 34 patients, 250 mg IV weekly): 12 | median time to progression (mantle cell lymphoma [4]; 95% CI 3.8-9.4 months): 6.2 months | median overall survival (mantle cell lymphoma [4]; 95% CI 6.7 months to not yet reached): 12 months | responses after 4 months evaluation (mantle cell lymphoma [4]; of 13 responders): 1 | responses after 8 months evaluation (mantle cell lymphoma [4]; of 13 responders): 1 | responses after the first cycle evaluation (mantle cell lymphoma [4]; of 13 responders): Eight | responses documented after 3 cycles (mantle cell lymphoma [4]; of 13 responders): 3 | patients who have died (mantle cell lymphoma [4]; [5]): 22 patients | patients with disease progression (mantle cell lymphoma [4]; [5]): 29 patients | median time to response (mantle cell lymphoma [4]; range 1-8): 1 month | anti-tumor activity in relapsed MCL (mantle cell lymphoma [4]; single agent): substantial anti-tumor activity

From US8507518B2, “Method of treating mantle cell lymphoma” (Mayo Foundation for Medical Education and Research, priority 2003, dated 2013)
